Tests used:
[1] = Metabolic stability in human hepatocytes; assay type: in vitro ADME; details: 120 min
Method: (§1) 13a was then evaluated within intact human and mouse hepatocytes. Like the s9 fractions, Verapamil was used as a positive control in the assay. Cryopreserved hepatocytes were thawed and plated to a working cell density of 0.5×10^6 viable cell/mL.

[2] = test system: 120 representative kinases (incl. JAK 1/2, ABL, FLT-3); test: KINOMEscan (DiscoverX) kinase profiling; assay type: binding; details: 5 μM, 120 kinases incl. JAK 1/2, ABL, qPCR
Method: KINOMEscan kinase profiling was performed as previously described (Fabian et al., 2005; Karaman et al., 2008). For most assays, kinase-tagged T7 phage strains were grown in parallel in 24-well blocks in an E. coli host derived from the BL21 strain. E. coli were grown to log-phase and infected with T7 phage from a frozen stock (multiplicity of infection=0.4) and incubated with shaking at 32° C. until lysis (90-150 minutes). The lysates were centrifuged (6,000×g) and filtered (0.2 μm) to remove cell debris. The remaining kinases were produced in HEK-293 cells and subsequently tagged with DNA for qPCR detection as previously described (Wodicka et al., 2010). […] The liganded beads were blocked with excess biotin and washed with blocking buffer (SeaBlock (Pierce), 1% BSA, 0.05% Tween 20, 1 mM DTT) to remove unbound ligand and to reduce non-specific phage binding. […] All reactions were performed in polypropylene 384-well plates in a final volume of 0.04 ml. […] The kinase concentration in the eluates was measured by qPCR and the data presented as % Ctrl (FIG. 1).

[3] = Metabolic stability in mouse hepatocytes; assay type: in vitro ADME; details: 120 min
Method: as §1

[4] = target: T1, wildtype STAT5B protein (SH2 domain) (Homo sapiens, UniProt P51692); test: Fluorescence polarization competitive binding, STAT5b; details: FP
T1 sequence (P51692 1-787): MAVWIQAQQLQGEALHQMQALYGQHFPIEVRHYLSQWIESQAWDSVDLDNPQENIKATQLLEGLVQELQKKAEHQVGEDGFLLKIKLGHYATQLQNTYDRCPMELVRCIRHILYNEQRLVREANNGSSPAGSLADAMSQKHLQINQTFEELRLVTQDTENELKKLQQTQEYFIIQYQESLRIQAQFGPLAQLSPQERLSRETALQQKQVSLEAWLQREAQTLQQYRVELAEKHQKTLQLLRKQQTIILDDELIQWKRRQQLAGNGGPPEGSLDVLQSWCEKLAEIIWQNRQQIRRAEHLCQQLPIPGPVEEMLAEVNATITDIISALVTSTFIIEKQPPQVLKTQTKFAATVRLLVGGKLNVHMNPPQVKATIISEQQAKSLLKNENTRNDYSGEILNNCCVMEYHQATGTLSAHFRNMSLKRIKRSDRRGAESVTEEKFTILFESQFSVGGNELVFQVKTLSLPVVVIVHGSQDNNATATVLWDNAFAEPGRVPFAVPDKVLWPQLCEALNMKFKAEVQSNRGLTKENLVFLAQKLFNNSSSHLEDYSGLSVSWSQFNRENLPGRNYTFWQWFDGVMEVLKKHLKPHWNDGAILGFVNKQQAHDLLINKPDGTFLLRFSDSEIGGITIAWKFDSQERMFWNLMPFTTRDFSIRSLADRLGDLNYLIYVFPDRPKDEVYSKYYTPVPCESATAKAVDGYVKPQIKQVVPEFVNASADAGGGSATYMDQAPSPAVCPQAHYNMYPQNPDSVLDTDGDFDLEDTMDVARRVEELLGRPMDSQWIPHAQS
Method: Fluorescence assays were performed in flat black 384-well plates (Corning) and fluorescence polarization measurements were taken with the Infinite M1000 machine (Tecan, Crailsheim, Germany). The buffer conditions for all assays were 20 mM HEPES, 50 mM NaCl, 1 mM EDTA, 2 mM dithiothreitol, pH 7.5 and the final DMSO concentration in the wells was kept constant at 10%.
The point at which 80% of the fluoresceinated-phosphopeptide was bound was used as the optimal protein concentration required for the competitive fluorescent polarization assays.
Compounds were titrated at concentrations ranging from 1->60,000 nM and incubated for a further 15 minutes at which point fluorescence polarization measurements were taken in triplicate. The final well concentrations of the fluoresceinated-phosphopeptide and STAT5B were 10 nM and 250 nM, respectively.
The resulting fluorescence polarization measurements were normalized and plotted against compound concentration on a logarithmic scale. The raw data was fitted with a standard dose-normalized response inhibition curve using GraphPad Prism 6 software.
Modified Cheng-Pruskoff equation containing a correction factor for protein concentration.

[5] = Metabolic stability in pooled mouse liver s9 fractions with NADPH; assay type: in vitro ADME; details: 60 min
Method: For the pooled s9 fractions, solution of the s9 fraction along with NADPH was added to each well. […] The positive control used in the assay was Verapamil, a known drug to be metabolized by liver enzymes. The reaction was started by the addition of 13a and performed in duplicate. Aliquots were taken from the reaction solution at 0 min and 60 min. The reaction was stopped by the addition of cold methanol. Samples were then analyzed through LC-MS/MS to determine the metabolic profile.

[6] = test system: MDA-MB-231 breast cancer cells; test: Cell viability, MDA-MB-231; assay type: cell-based
Method: Breast carcinoma lines MDA-MB-231 and MDA-MB-468 were grown in dulbecco's modified eagles medium (DMEM) supplemented with 10% FBS (sigma). […] As a control, cells were treated with the DMSO alone.

CC(C)(C)c1cc(CN(C(=O)CN(Cc2ccc(Cl)cc2)S(=O)(=O)c2c(F)c(F)c(F)c(F)c2F)c2ccc(C(=O)O)c(O)c2)cc(C(C)(C)C)c1 [Compound 13a, 4-(2-((N-(4-chlorobenzyl)-2,3,4,5,6-pentafluorophenyl)sulfonamido)-N-(3,5-di-tert-butylbenzyl)acetamido)-2-hydroxybenzoic Acid]
recovered in human hepatocytes [1]: 68.56%
recovered in boiled human hepatocytes (negative control) ([1]; boiled hepatocytes): ~85%
effects against the bank of kinases [2]: negligible effects
recovered in mouse hepatocytes [3]: 53.37%
recovered in boiled mouse hepatocytes (negative control) ([3]; boiled hepatocytes): ~85%
IC50 ([4]; 5-FAM-GpYLVLDKW 10 nM, STAT5B 250 nM): 370 nM
Ki ([4]; converted from IC50 with Equation 1): 150 nM
recovered in mouse liver s9 (MMLS9) fractions [5]: 6.96%
less cytotoxic in MDA-MB-231 than in high pSTAT5 leukemic cell line [6]: 3 fold

Reference: US10519107B2, “Sulfonamide compounds and their use as STAT5 inhibitors” (Governing Council of the University of Toronto, priority 2014, dated 2019)
